# Reference: PubChem BioAssay (NCI)
#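 All cell lines were grown in 96-well plates and treated with compound for 48 hours. At the GI50, growth is halved. TGI marks complete inhibition of growth.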
# Key:
# Assay in all cases: NCI anticancer screen, dose series, 48 h
# [1] = system: 786-0 renal
# [2] = system: A498 renal
# [3] = system: A549 NSCLC
# [4] = system: ACHN renal
# [5] = system: BT-549 breast
# [6] = system: CAKI-1 renal
# [7] = system: CCRF-CEM leukemia
# [8] = system: COLO 205 colon
# [9] = system: DU-145 prostate
# [10] = system: HCC-2998 colon
# [11] = system: HCT-116 colon
# [12] = system: HCT-15 colon
# [13] = system: HOP-62 NSCLC
# [14] = system: HOP-92 NSCLC
# [15] = system: HS 578T breast
# [16] = system: HT29 colon
# [17] = system: IGROV1 ovarian
# [18] = system: K-562 leukemia
# [19] = system: KM12 colon
# [20] = system: LOX IMVI melanoma
# [21] = system: M14 melanoma
# [22] = system: MALME-3M melanoma
# [23] = system: MCF7 breast
# [24] = system: MDA-MB-231 breast
# [25] = system: MDA-MB-435
# [26] = system: MOLT-4 leukemia
# [27] = system: NCI-H226 lung
# [28] = system: NCI-H23 lung
# [29] = system: NCI-H460 lung
# [30] = system: NCI-H522 lung
# [31] = system: NCI/ADR-RES ovarian
# [32] = system: OVCAR-3 ovarian
# [33] = system: OVCAR-4 ovarian
# [34] = system: OVCAR-5 ovarian
# [35] = system: OVCAR-8 ovarian
# [36] = system: PC-3 prostate
# [37] = system: RPMI-8226 leukemia
# [38] = system: RXF 393 renal
# [39] = system: SF-268 CNS
# [40] = system: SF-295 CNS
# [41] = system: SF-539 CNS
# [42] = system: SK-MEL-2 melanoma
# [43] = system: SK-MEL-28 melanoma
# [44] = system: SK-MEL-5 melanoma
# [45] = system: SK-OV-3 ovarian
# [46] = system: SN12C renal
# [47] = system: SNB-19 CNS
# [48] = system: SNB-75 CNS
# [49] = system: SR leukemia
# [50] = system: SW-620 colon
# [51] = system: T-47D breast
# [52] = system: TK-10 renal
# [53] = system: U251 CNS
# [54] = system: UACC-62 melanoma
compound,measurement,setting,value
COc1ccc2ccc3oc([N+](=O)[O-])cc3c2c1,GI50,[1],316 nM
same,TGI,[1],1100 nM
same,GI50,[2],126 nM
same,TGI,[2],301 nM
same,GI50,[3],197 nM
same,TGI,[3],543 nM
same,GI50,[4],40.2 nM
same,TGI,[4],1440 nM
same,GI50,[5],194 nM
same,TGI,[5],606 nM
same,GI50,[6],186 nM
same,TGI,[6],514 nM
same,GI50,[7],193 nM
same,TGI,[7],10600 nM
same,GI50,[8],157 nM
same,TGI,[8],432 nM
same,GI50,[9],123 nM
same,TGI,[9],2140 nM
same,GI50,[10],171 nM
same,TGI,[10],416 nM
same,GI50,[11],189 nM
same,TGI,[11],1210 nM
same,GI50,[12],218 nM
same,TGI,[12],1270 nM
same,GI50,[13],1030 nM
same,TGI,[13],6340 nM
same,GI50,[14],155 nM
same,TGI,[14],506 nM
same,GI50,[15],297 nM
same,TGI,[15],1440 nM
same,GI50,[16],202 nM
same,TGI,[16],1890 nM
same,GI50,[17],246 nM
same,TGI,[17],877 nM
same,GI50,[18],259 nM
same,TGI,[18],> 100000 nM
same,GI50,[19],417 nM
same,TGI,[19],2090 nM
same,GI50,[20],55.7 nM
same,TGI,[20],355 nM
same,GI50,[21],115 nM
same,TGI,[21],307 nM
same,GI50,[22],187 nM
same,TGI,[22],393 nM
same,GI50,[23],226 nM
same,TGI,[23],2340 nM
same,GI50,[24],208 nM
same,TGI,[24],723 nM
same,GI50,[25],116 nM
same,TGI,[25],247 nM
same,GI50,[26],74.5 nM
same,TGI,[26],> 100000 nM
same,GI50,[27],296 nM
same,TGI,[27],3220 nM
same,GI50,[28],198 nM
same,TGI,[28],572 nM
same,GI50,[29],114 nM
same,TGI,[29],405 nM
same,GI50,[30],169 nM
same,TGI,[30],563 nM
same,GI50,[31],251 nM
same,TGI,[31],2220 nM
same,GI50,[32],255 nM
same,TGI,[32],754 nM
same,GI50,[33],828 nM
same,TGI,[33],5410 nM
same,GI50,[34],386 nM
same,TGI,[34],7680 nM
same,GI50,[35],216 nM
same,TGI,[35],3270 nM
same,GI50,[36],1080 nM
same,TGI,[36],7900 nM
same,GI50,[37],333 nM
same,TGI,[37],5920 nM
same,GI50,[38],141 nM
same,TGI,[38],316 nM
same,GI50,[39],201 nM
same,TGI,[39],1690 nM
same,GI50,[40],251 nM
same,TGI,[40],3220 nM
same,GI50,[41],275 nM
same,TGI,[41],1070 nM
same,GI50,[42],242 nM
same,TGI,[42],509 nM
same,GI50,[43],202 nM
same,TGI,[43],540 nM
same,GI50,[44],104 nM
same,TGI,[44],228 nM
same,GI50,[45],206 nM
same,TGI,[45],894 nM
same,GI50,[46],311 nM
same,TGI,[46],5320 nM
same,GI50,[47],281 nM
same,TGI,[47],> 100000 nM
same,GI50,[48],166 nM
same,TGI,[48],527 nM
same,GI50,[49],82.7 nM
same,TGI,[49],11700 nM
same,GI50,[50],236 nM
same,TGI,[50],2140 nM
same,GI50,[51],1830 nM
same,TGI,[51],> 100000 nM
same,GI50,[52],560 nM
same,TGI,[52],6520 nM
same,GI50,[53],277 nM
same,TGI,[53],5370 nM
same,GI50,[54],157 nM
same,TGI,[54],355 nM
